Assay [1] has as its system pApU (poly rA–poly rU; polyAU) (RNA, polymer) A/U. The assay can be described thus: UV thermal denaturation. The following applies: Na+ (sodium cacodylate); pH 7; r[compound]/[polynucleotide] = 0.3; error ±0.5 °C; per base.
Assay [2] shares this test system. The assay is described as follows: fluorimetric titration, Scatchard / McGhee-von Hippel. The following applies: Na+ (sodium cacodylate); pH 7; sodium cacodylate buffer; r fixed at 0.25; compound 1×10^-7 M; per base.
For assay [3] the test system is unchanged. The assay can be described thus: fluorimetric titration. The following applies: Na+ (sodium cacodylate); pH 7; compound 1×10^-7 M; negligible emission change.

For `Cc1cc(C)c(B(c2c(C)cc(C)cc2C)c2c(C)cc(-c3ccc(-c4ccc(-c5cc(C)c(B(c6c(C)cc([N+](C)(C)C)cc6C)c6c(C)cc([N+](C)(C)C)cc6C)c(C)c5)s4)s3)cc2C)c(C)c1`, the ΔTm (commonly the shift of the melting midpoint relative to a reference) in assay [1] is 11.1 °C. In assay [2], the “log Ks” value is 7.0.
As for `Cc1cc(C)c(B(c2c(C)cc(-c3ccc(-c4ccc(-c5cc(C)c(B(c6c(C)cc(C)cc6C)c6c(C)cc([N+](C)(C)C)cc6C)c(C)c5)s4)s3)cc2C)c2c(C)cc([N+](C)(C)C)cc2C)c(C)c1`, the ΔTm in assay [1] turned out to be 13.0 °C. Also, the “log Ks” value in assay [2] worked out at 7.8.
In the same order, the values of `Cc1cc(C)c(B(c2c(C)cc(-c3ccc(-c4ccc(-c5cc(C)c(B(c6c(C)cc([N+](C)(C)C)cc6C)c6c(C)cc([N+](C)(C)C)cc6C)c(C)c5)s4)s3)cc2C)c2c(C)cc([N+](C)(C)C)cc2C)c(C)c1` are 5.5 °C and 7.5.
`Cc1cc(C)c(B(c2c(C)cc(C)cc2C)c2c(C)cc(-c3ccc(-c4ccc(-c5cc(C)c(B(c6c(C)cc(C)cc6C)c6c(C)cc([N+](C)(C)C)cc6C)c(C)c5)s4)s3)cc2C)c(C)c1`: in assay [3], the binding result is on record as “no”. In assay [1], the ΔTm is 0 °C.
